This is an account of results in ChEMBL document CHEMBL1148236, “Synthesis and structure-activity relationship of 3-arylbenzoxazines as selective estrogen receptor beta agonists” (Bioorg Med Chem Lett, 2004).

Assay [1] concerns the target T1, Estrogen receptor (Homo sapiens, UniProt P03372).
T1 sequence (P03372 whole entry): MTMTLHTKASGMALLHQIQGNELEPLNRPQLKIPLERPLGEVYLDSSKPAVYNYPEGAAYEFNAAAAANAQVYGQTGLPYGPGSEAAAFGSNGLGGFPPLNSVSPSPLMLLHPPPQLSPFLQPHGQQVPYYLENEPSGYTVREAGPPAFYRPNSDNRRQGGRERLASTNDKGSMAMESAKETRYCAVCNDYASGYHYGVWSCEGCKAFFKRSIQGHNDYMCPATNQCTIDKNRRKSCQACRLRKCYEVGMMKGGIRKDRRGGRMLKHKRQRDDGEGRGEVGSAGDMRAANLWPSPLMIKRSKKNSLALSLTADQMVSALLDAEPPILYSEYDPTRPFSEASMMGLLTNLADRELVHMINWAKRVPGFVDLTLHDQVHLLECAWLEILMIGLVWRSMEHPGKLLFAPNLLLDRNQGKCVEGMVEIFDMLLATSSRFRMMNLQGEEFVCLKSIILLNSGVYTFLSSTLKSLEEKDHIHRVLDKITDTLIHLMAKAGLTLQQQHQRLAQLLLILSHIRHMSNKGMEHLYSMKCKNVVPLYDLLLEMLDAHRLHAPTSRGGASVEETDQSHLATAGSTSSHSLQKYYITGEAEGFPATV
Description: Binding affinity towards estrogen receptor alpha by [3H]17-beta-estradiol displacement.

The target in assay [2] is T2, Estrogen receptor beta (Homo sapiens, UniProt Q92731).
T2 sequence (Q92731 whole entry): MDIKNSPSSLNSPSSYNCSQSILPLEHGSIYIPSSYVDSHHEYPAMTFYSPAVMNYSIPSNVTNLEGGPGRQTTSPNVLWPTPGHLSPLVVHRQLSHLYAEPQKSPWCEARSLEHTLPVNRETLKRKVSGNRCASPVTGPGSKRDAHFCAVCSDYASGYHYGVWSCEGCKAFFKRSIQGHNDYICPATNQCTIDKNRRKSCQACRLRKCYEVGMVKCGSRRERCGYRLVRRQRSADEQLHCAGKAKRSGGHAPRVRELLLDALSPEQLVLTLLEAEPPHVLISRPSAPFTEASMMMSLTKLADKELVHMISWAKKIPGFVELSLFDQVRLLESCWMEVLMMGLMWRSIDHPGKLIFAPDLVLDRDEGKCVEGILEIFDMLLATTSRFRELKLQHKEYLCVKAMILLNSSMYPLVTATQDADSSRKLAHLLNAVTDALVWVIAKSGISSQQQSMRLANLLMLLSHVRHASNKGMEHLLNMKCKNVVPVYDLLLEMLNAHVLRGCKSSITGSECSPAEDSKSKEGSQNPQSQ
Description: Binding affinity towards estrogen receptor beta by [3H]17-beta-estradiol displacement.
Assay [3] has as its target T1, Estrogen receptor. This is another data set of the same source.
Description: Ability to activate estrogen receptor 1-mediated transcription.
Assay [4] concerns the target T2, Estrogen receptor beta. This is another data set of the same source.
Description: Ability to activate estrogen receptor 2-mediated transcription.

As a reminder, the IC50 is the concentration that inhibits the measured activity by half. By EC50 is commonly meant the concentration needed to bring the measured effect to its halfway point. A high value points to weaker potency. Regarding `CCC1Oc2cc(O)cc(O)c2N=C1c1ccc(O)cc1` (centres undefined), the concentration for half-maximal inhibition (IC50) is 1200 nM against Estrogen receptor [1] and 120 nM at Estrogen receptor beta [2]. For the same molecule, the EC50 at Estrogen receptor [3] is 170 nM; at Estrogen receptor beta [4] it was 26 nM.
For `Oc1ccc(C2=Nc3ccc(O)cc3OC2)cc1` the same measures were 16000 nM, 2900 nM, 6900 nM and 160 nM.
Take `CCC1Oc2cc(O)cc(C)c2N=C1c1ccc(O)c(Br)c1` (centres undefined): the figures for the IC50 against Estrogen receptor [1] and against Estrogen receptor beta [2] were 180 nM and 90 nM, respectively. Further, the EC50 at Estrogen receptor [3] amounted to 170 nM; at Estrogen receptor beta [4], 8 nM.
Taken in the same sequence, the figures for `CCC1Oc2cc(O)cc(O)c2N=C1c1ccc(O)c(Br)c1` (centres undefined) were 5300 nM, 1100 nM, 2000 nM and 180 nM.
Taken in the same sequence, the figures for `CC1(C)Oc2cc(O)cc(O)c2N=C1c1ccc(O)c(Br)c1` were 6000 nM, 1700 nM, 1400 nM and 120 nM.
For `CC1Oc2cc(O)ccc2N=C1c1ccc(O)cc1` (centres undefined) the same measures were 1700 nM, 330 nM, 64 nM and 30 nM.
For `Cc1cc(O)cc2c1N=C(c1ccc(O)c(Br)c1)C(C)O2` (centres undefined), the 50% inhibitory concentration (IC50) against Estrogen receptor [1] stood at 320 nM; against Estrogen receptor beta [2] it was 90 nM. Further, the figures for the concentration for a half-maximal effect (EC50) at Estrogen receptor [3] and on Estrogen receptor beta [4] were 46 nM and 16 nM, respectively.
Regarding `CC1(C)Oc2cc(O)ccc2N=C1c1ccc(O)cc1`, the results for the IC50 on Estrogen receptor [1] and at Estrogen receptor beta [2] were 8600 nM and 5600 nM, respectively. For the same molecule, the figures for the EC50 at Estrogen receptor [3] and at Estrogen receptor beta [4] were 3100 nM and 140 nM, respectively.
With `Oc1ccc2c(c1)CC1Oc3cc(O)ccc3N=C21` (centres undefined), the results for the IC50 at Estrogen receptor [1] and on Estrogen receptor beta [2] were 5600 nM and 1400 nM, respectively. The EC50 worked out at 900 nM on Estrogen receptor [3] and 77 nM on Estrogen receptor beta [4].
In the case of `CC1Oc2cc(O)cc(O)c2N=C1c1ccc(O)cc1` (stereo in doubt; 4i), the concentration for half-maximal inhibition (IC50) on Estrogen receptor [1] worked out at 2900 nM; against Estrogen receptor beta [2] it was 310 nM. Also, the EC50 at Estrogen receptor [3] was 150 nM; at Estrogen receptor beta [4], 47 nM.
For `Oc1ccc(C2=Nc3c(O)cc(O)cc3OC2)cc1`, the half-inhibitory concentration (IC50) against Estrogen receptor [1] stood at 33000 nM; on Estrogen receptor beta [2], 2800 nM. In addition, the concentration giving a half-maximal response (EC50) on Estrogen receptor [3] worked out at 1800 nM; on Estrogen receptor beta [4], 270 nM.
For `CCC1Oc2cc(O)ccc2N=C1c1ccc(O)cc1` (centres undefined) the same measures were 850 nM, 200 nM, 59 nM and 7 nM.
Taken in the same sequence, the figures for `CC1Oc2cc(O)cc(O)c2N=C1c1ccc(O)cc1` (single isomer, unassigned; enantiomer B) were 6300 nM, 1100 nM, 290 nM and 74 nM.
For `Oc1ccc2c(c1)CCC1Oc3cc(O)ccc3N=C21` (centres undefined) the same measures were 6000 nM, 2600 nM, 12000 nM and 240 nM.
For `CCCC1Oc2cc(O)ccc2N=C1c1ccc(O)cc1` (centres undefined), the IC50 against Estrogen receptor [1] was found to be 1700 nM; against Estrogen receptor beta [2] it was 320 nM. Besides, the concentration for a half-maximal effect (EC50) on Estrogen receptor [3] was determined as 1700 nM; on Estrogen receptor beta [4], 18 nM.
Consider `CC1Oc2cc(O)cc(O)c2N=C1c1ccc(O)cc1` (single isomer, unassigned), for which the IC50 on Estrogen receptor [1] worked out at 2800 nM; at Estrogen receptor beta [2] it was 240 nM. Besides, the figures for the EC50 at Estrogen receptor [3] and on Estrogen receptor beta [4] were 140 nM and 50 nM, respectively.
